In patent US10631540B2, “Plant disease control composition, and plant disease control method” (Sumitomo Chemical Company, Limited, priority 2015, dated 2020):

Key:
[1] = test system: Pythium damping-off pathogen (Pythium irregulare); assay: Soybean seed treatment test against Pythium damping-off (Test Example 1); format: in vivo; conditions: soybean (Hatayutaka) seed treatment; dose rate gai/100 kg seed where present: ethaboxam 3.75, metalaxyl 1.0, oxathiapiprolin 3.75; grown 15° C. 5 days then 25° C. 10 days
Protocol: An acetone solution containing the compounds was prepared such that the amounts of compounds to be treated for seeds were set to the dose rate listed in Table 1. 10 g of seeds of soybean (Hatayutaka) and 80 μl of the acetone solution were added to a plastic container, the container was covered with a lid and then shaken, and then the seeds taken out of the container were left overnight, thereby obtaining treated seeds. A plastic pot was filled with culture soil, and the treated seeds were sowed and then were covered with culture soil mixed with seeds of grass turf which was infected with Pythium damping-off pathogen (Pythium irregulare). After irrigation, the seeds were grown at 15° C. for 5 days and then grown at 25° C. for 10 days. This area was set to a treated area. Further, soybeans were grown in the same manner as in the treated area except that a chemical agent was not applied to the seeds. This area was set to a non-treated area. The incidence of disease of plants in the treated area and the non-treated area were calculated using the following “Equation 1”. The control values were calculated using the following “Equation 2”. […] A: Incidence of disease of plants of non-treated area B: Incidence of disease of plants of treated area

[2] = test system: Pythium damping-off pathogen (Pythium ultimum); assay: Soybean seed treatment test against Pythium damping-off (Test Example 2); format: in vivo; conditions: soybean (Hatayutaka) seed treatment; dose rate gai/100 kg seed where present: ethaboxam 3.75, metalaxyl 1.0, oxathiapiprolin 3.75; grown 15° C. 5 days then 25° C. 10 days
Protocol: An acetone solution containing the compounds was prepared such that the amounts of compounds to be treated for seeds were set to the dose rate listed in Table 2. 10 g of seeds of soybean (Hatayutaka) and 80 μl of the acetone solution were added to a plastic container, the container was covered with a lid and then shaken, and then the seeds taken out of the container were left overnight, thereby obtaining treated seeds. A plastic pot was filled with culture soil, and the treated seeds were sowed and then were covered with culture soil mixed with seeds of grass turf which was infected with Pythium damping-off pathogen (Pythium ultimum). After irrigation, the seeds were grown at 15° C. for 5 days and then grown at 25° C. for 10 days. This area was set to a treated area. Further, soybeans were grown in the same manner as in the treated area except that a chemical agent was not applied to the seeds. This area was set to a non-treated area. The incidence of disease of plants in the treated area and the non-treated area were calculated using the above-described “Equation 1”. The control values were calculated using the above-described “Equation 2”.

With COCC(=O)N(c1c(C)cccc1C)C(C)C(=O)OC (racemic) [Metalaxyl, metalaxyl] the “Control value (%)” value [1] was 6% and the “Control value (%)” value [2] was 0%.

For CCNc1nc(CC)c(C(=O)NC(C#N)c2cccs2)s1 (stereo not drawn) [Ethaboxam, ethaboxam], the “Control value (%)” value [1] was 9% and the “Control value (%)” value [2] was 14%.

For Cc1cc(C(F)(F)F)nn1CC(=O)N1CCC(c2nc(C3=NOC(c4c(F)cccc4F)C3)cs2)CC1 (stereo not drawn) [Oxathiapiprolin, oxathiapiprolin], the “Control value (%)” value [1] was 6% and the “Control value (%)” value [2] was 14%.
